Source: paper PMC7887755, “Structure–Activity Relationships of Pyrazolo[1,5-a]pyrimidin-7(4H)-ones as Antitubercular Agents” (ACS Infectious Diseases, 2021)
Values after ≈ are worked out from the molar mass of the structure shown. Values joined by “and” are separate entries in the source; they are usually repeats but may differ in a detail not shown here. Identical values can stand only once. Like-named read-outs stand apart in the source and are kept apart here.

Legend:
[1] = Microsomal stability, mouse; assay type: in vitro ADME; conditions: liver microsomes of female mouse, read-out: % Remaining after 2 h incubation Mouse
Procedure: (§1) % Remaining after 2 h incubation
(§2) Compound Chemical Structure
(§3) Table S1. Microsomal stability of some pyrazolo[1,5-a]pyrimidin-7(4H)-one derivatives
(§4) Microsomal stability was tested in microsomes from liver of female mouse (M9566 from Sigma-Aldrich)a or microsomes
(§5) from human liver (M0317 from Sigma-Aldrich)b.

J774 cells = assay: Murine macrophage cytotoxicity (luminescence-based); conditions: Mus musculus; murine macrophage cell line J774, 24 h; read-out: IC50 against J774 cells
Mtb strain H37Rv = assay: MIC against Mtb H37Rv under various media/carbon sources; assay type: cell-based; conditions: Mycobacterium tuberculosis
Mtb H37Rv WT = assay: microbe, parasite or virus in culture; assay type: cell-based; conditions: Mycobacterium tuberculosis
[2] = tested on: cell wall responsive iniBAC promoter (piniB-LUX reporter strain); assay type: cell-based, Mycobacterium tuberculosis
in vitro = conditions: human, 24 h
[3] = tested on: intramacrophage Mtb H37Rv; assay: Ex vivo efficacy against intracellular Mtb in J774 macrophages; assay type: cell-based, Mycobacterium tuberculosis
Mtb H37Rv [4] = assay: microbe, parasite or virus in culture; assay type: cell-based, Mycobacterium tuberculosis; conditions: for MIC: Mycobacterium tuberculosis, H37RV
[5] = Microsomal stability, human; assay type: in vitro ADME; conditions: human liver microsomes, read-out: % Remaining after 2 h incubation Human
Procedure: as §1, §2, §3, §4, §5

Mtb H37Rv [6] = assay: MIC under iron-depleted (DFO) or iron-replete (FeCl3) conditions; assay type: cell-based, Mycobacterium tuberculosis
[7] = tested on: DNA damage responsive recA and radA reporters; assay type: cell-based, Mycobacterium tuberculosis
iron uptake of Mtb H37Rv = assay: 55Fe iron uptake by Mtb; assay type: cell-based, Mycobacterium tuberculosis; conditions: 55Fe-labelled medium; 1 at 10 μM, DFO at 39 μM
[8] = pH 6, read-out: MIC nitrate/butyrate
[9] = Cytotoxicity (IC50) Galactose, HepG2 cells in DMEM/10% FBS with galactose
[10] = Cytotoxicity (IC50) Glucose, HepG2 cells in DMEM/10% FBS supplemented with glucose

| SMILES | remaining at 2 h [1] | IC50 (J774 cells) | MIC (Mtb strain H37Rv; GAST/Fe, read-out: MIC GAST) | MIC (Mtb strain H37Rv; [8]) | MIC (Mtb strain H37Rv; read-out: MIC 7H9) | MIC (Mtb strain H37Rv; read-out: MIC Chol) | MIC (Mtb strain H37Rv; read-out: MIC GBSA/DBSA) | MIC (Mtb H37Rv WT) | reporter gene assay cell wall [2] | IC50 (in vitro; [9]) | IC50 (in vitro; [10]) | improvement in MIC compared to the initial hit 1 (Mtb H37Rv [4]) | MIC (Mtb H37Rv [4]; read-out: MIC in 7H9 ADC) | MIC (Mtb H37Rv [4]; read-out: MIC in 7H9 GCas) | remaining at 2 h [5] | increase in potency under iron-depleted conditions (MIC ratio) (Mtb H37Rv [6]) | reporter gene assay DNA damage [7] | effect on iron uptake (iron uptake of Mtb H37Rv) | also measured |
| --- | --- | --- | --- | --- | --- | --- | --- | --- | --- | --- | --- | --- | --- | --- | --- | --- | --- | --- | --- |
| Cc1nn2c(=O)cc(-c3ccc(F)c(F)c3)[nH]c2c1-c1ccccc1 [Compound P19, 5-(3,4-Difluorophenyl)-2-methyl-3-phenylpyrazolo[1,5-a]pyrimidin-7(4H)-one] | 66% | 29.6 ± 1.2 µM | 1.2 µM (≈ 0.405 µg/mL) | 1.56 µM (≈ 0.526 µg/mL) | 3.13 µM (≈ 1.06 µg/mL) | 3.13 µM (≈ 1.06 µg/mL) | 3.13 µM (≈ 1.06 µg/mL) | 0.78 µM (≈ 0.263 µg/mL) | no | 58.9 µM | > 100 µM | 5 fold | 2.73 µM (≈ 0.921 µg/mL) | 1.56 µM (≈ 0.526 µg/mL) | 77% | ≤ 2 fold | no | – | reduction of bacterial burden [3]: ~0.5 logs |
| Cc1nn2c(=O)cc(-c3ccc(Cl)c(Cl)c3)[nH]c2c1-c1ccc(F)cc1 [Compound P24, 5-(3,4-Dichlorophenyl)-3-(4-fluorophenyl)-2-methylpyrazolo[1,5-a]pyrimidin-7(4H)-one] | – | 22.5 ± 2.1 µM | – | – | – | – | – | 1.56 µM (≈ 0.606 µg/mL) | – | 38.7 µM | > 100 µM | 8 fold | 2.34 µM (≈ 0.908 µg/mL) | 3.12 µM (≈ 1.21 µg/mL) | – | ≤ 2 fold | – | – | – |
| Cc1nn2c(=O)cc(-c3ccc(F)c(F)c3)[nH]c2c1-c1ccc(Cl)cc1 [Compound P25, 3-(4-Chlorophenyl)-5-(3,4-difluorophenyl)-2-methylpyrazolo[1,5-a]pyrimidin-7(4H)-one] | – | 20.2 ± 0.8 µM | – | – | – | – | – | – | – | 52.6 µM | 94.3 µM | 8 fold | 1.95 µM (≈ 0.725 µg/mL) | 3.12 µM (≈ 1.16 µg/mL) | – | – | – | – | reduction of bacterial counts [3]: 1.5 orders of magnitude and 2 orders of magnitude |
| Cc1nn2c(=O)cc(-c3ccccc3)[nH]c2c1-c1ccccc1 [Compound 1, 2-Methyl-3,5-diphenylpyrazolo[1,5-a]pyrimidin-7(4H)-one] | 61% | – | 2.3 µM (≈ 0.693 µg/mL) | 12.5 µM (≈ 3.77 µg/mL) | 12.5 µM (≈ 3.77 µg/mL) | 9.4 µM (≈ 2.83 µg/mL) | 12.5 µM (≈ 3.77 µg/mL) | 1.2 µM (≈ 0.362 µg/mL) | no | > 100 µM | > 100 µM | – | 12.5 µM (≈ 3.77 µg/mL) | 3.12 µM (≈ 0.94 µg/mL) | 66% | – | no | did not inhibit iron uptake | – |
| CC(=O)N(O)CCCCCNC(=O)CCC(=O)N(O)CCCCCNC(=O)CCC(=O)N(O)CCCCCN [DFO, desferrioxamine, reference compound] | – | – | – | – | – | – | – | – | – | – | – | – | – | – | – | – | – | completely inhibited uptake | MIC (Mtb H37Rv [6]; Mycobacterium tuberculosis, H37RV, MIC of the iron-modulating additive itself): 250 µM |
